Drawing on patent US20250090540A1, “PI3K-ALPHA INHIBITORS AND METHODS OF USE THEREOF” (Relay Therapeutics, Inc., priority 2021, published 2025), this text covers IC50 for 56 compounds.

The assay deals with H1047R PIK3CA enzyme (Homo sapiens, UniProt P42336, H1047R). In words: ADP-Glo Biochemical PIK3CA Kinase Assay. Here is the method: Compounds to be assayed were plated in 16 doses of 1:2 serial dilutions (20 nL volume each well) on a 1536-well plate, and the plate warmed to room temperature. PIK3CA enzyme (e.g. H1047R, E542K, E545K, or wild-type) (1 μL of 2 nM solution in Enzyme Assay Buffer (comprising 50 mM HEPES pH 7.4, 50 mM NaCl, 6 mM MgCl2, 5 mM DTT and 0.03% CHAPS)) was added and shaken for 10 seconds and preincubated for 30 minutes. To the well was added 1 μL of 200 μM ATP and 20 μM of diC8-PIP2 in Substrate Assay Buffer (50 mM HEPES pH7.4, 50 mM NaCl, 5 mM DTT and 0.03% CHAPS) to start the reaction, and the plate was shaken for 10 seconds, then spun briefly at 1500 rpm, and then incubated for 60 minutes at room temperature. The reaction was stopped by adding 2 μL of ADP-Glo reagent (Promega), and spinning briefly at 1500 rpm, and then incubating for 40 minutes. ADP-Glo Detection reagent (Promega) was added and the plate spun briefly at 1500 rpm, then incubated for 30 minutes.
Sequence of H1047R PIK3CA enzyme (P42336 whole entry H1047R): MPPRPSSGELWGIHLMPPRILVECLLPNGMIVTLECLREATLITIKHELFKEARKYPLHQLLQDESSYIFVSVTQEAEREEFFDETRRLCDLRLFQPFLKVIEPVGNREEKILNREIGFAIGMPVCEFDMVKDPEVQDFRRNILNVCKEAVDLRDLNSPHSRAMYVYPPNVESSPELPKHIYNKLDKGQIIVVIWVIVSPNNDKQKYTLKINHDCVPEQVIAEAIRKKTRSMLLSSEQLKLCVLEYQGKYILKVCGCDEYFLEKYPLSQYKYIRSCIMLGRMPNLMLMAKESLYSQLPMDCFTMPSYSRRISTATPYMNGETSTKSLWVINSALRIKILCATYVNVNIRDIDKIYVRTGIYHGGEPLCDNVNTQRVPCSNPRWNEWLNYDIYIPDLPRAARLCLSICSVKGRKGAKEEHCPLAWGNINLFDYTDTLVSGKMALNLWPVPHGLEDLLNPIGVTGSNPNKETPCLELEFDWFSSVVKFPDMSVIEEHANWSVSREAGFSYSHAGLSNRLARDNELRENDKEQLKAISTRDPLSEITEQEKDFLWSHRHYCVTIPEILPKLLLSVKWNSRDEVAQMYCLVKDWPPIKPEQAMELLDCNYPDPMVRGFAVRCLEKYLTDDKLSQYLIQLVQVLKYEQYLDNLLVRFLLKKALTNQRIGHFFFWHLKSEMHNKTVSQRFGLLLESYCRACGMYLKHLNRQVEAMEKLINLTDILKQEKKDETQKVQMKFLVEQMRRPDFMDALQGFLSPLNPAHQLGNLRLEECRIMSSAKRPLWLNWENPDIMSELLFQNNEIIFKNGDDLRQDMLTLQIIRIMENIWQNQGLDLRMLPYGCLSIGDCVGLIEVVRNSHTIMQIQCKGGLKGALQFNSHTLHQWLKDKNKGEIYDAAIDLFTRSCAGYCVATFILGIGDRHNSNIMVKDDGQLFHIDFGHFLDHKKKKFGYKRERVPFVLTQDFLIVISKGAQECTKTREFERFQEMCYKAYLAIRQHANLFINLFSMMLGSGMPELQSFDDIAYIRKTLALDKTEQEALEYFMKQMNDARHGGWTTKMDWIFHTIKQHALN
Sequence of H1047R PIK3CA enzyme (P27986 whole entry partner): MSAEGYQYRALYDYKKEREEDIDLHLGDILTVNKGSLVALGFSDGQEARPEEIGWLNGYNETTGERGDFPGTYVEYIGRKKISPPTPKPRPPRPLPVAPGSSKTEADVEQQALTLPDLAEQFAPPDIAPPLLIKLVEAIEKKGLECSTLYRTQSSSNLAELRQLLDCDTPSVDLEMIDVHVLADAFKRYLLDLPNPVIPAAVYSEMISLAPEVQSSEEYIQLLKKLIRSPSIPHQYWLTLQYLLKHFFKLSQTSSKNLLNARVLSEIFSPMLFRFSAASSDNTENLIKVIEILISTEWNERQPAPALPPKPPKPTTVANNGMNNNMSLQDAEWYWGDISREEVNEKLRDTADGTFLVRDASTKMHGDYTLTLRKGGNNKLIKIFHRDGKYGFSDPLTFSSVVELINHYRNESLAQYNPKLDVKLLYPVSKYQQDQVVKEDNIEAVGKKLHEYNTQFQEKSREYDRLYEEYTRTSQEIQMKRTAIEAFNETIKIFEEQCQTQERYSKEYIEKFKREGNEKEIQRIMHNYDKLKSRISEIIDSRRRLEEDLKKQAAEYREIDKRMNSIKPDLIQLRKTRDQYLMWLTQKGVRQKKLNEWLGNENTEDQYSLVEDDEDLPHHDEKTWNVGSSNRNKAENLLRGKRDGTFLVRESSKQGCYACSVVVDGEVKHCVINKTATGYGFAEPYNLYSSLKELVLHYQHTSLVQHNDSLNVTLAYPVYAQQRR

Regarding `CNC(=O)c1cnc(Nc2ccccc2S(C)(=O)=O)c(NC(=O)c2cc(F)cc(C(F)(F)F)c2)c1` [I-47], the IC50 lay in the range of 10 to 100 µM.
`CNC(=O)c1cnc(Nc2ccccc2C)c(NC(=O)c2ncn3ccccc23)c1` [I-48] gave an IC50 of 10 to 100 µM.
In the case of `Cc1ccccc1Nc1ncc(C#N)cc1NC(=O)c1cc(F)cc(C(F)(F)F)c1` [I-49] it was 1 to 10 µM.
The compound `CNC(=O)c1cnc(Nc2ccccc2C)c(NS(=O)(=O)c2cn(C)nc2C)c1` [I-55] returned an IC50 of 10 to 100 µM.
The compound `CNc1ncc(Br)cc1NC(=O)c1cc(F)cc(C(F)(F)F)c1` [I-58] yielded an IC50 of 10 to 100 µM.
The compound `Cc1ccc(NC(=O)c2cc(F)cc(C(F)(F)F)c2)c(Nc2ccccc2C)n1` [I-59] registered an IC50 of 1 to 10 µM.
Turning to `Cc1ccccc1Nc1ncc(-c2cnn(C)c2)cc1Nc1ncnn2cccc12` [I-61], the 50% inhibitory concentration (IC50) fell in the range of 10 to 100 µM.
`Cc1ccccc1Nc1ncc(NS(C)(=O)=O)cc1NC(=O)c1cc(F)cc(C(F)(F)F)c1` [I-62] registered an IC50 of 1 to 10 µM.
The compound `Cc1ccccc1Nc1ncc(CO)cc1NC(=O)c1cc(F)cc(C(F)(F)F)c1` [I-63] showed an IC50 of 1 to 10 µM.
For `CNC(=O)c1cnc(Nc2ccccc2C)c(NC(=O)c2cccc(C(F)(F)F)c2)c1` [I-66] the value was 1 to 10 µM; for `Cc1ccccc1Nc1ncc(C(=O)NS(C)(=O)=O)cc1NC(=O)c1cc(F)cc(C(F)(F)F)c1` [I-69], 10 to 100 µM; for `Cc1ccccc1Nc1ncc(N)cc1NC(=O)c1cc(F)cc(C(F)(F)F)c1` [I-70], 1 to 10 µM.
With `CNc1ncc(-c2cnn(C)c2)cc1NC(=O)c1cc(F)cc(C(F)(F)F)c1` [I-71], the IC50 was in the range of 10 to 100 µM.
Compound `Cc1ccccc1Nc1ncc(N2CC(N)C2)cc1NC(=O)c1cc(F)cc(C(F)(F)F)c1` [I-73] came in with an IC50 of 1 to 10 µM.
With `Cc1ccccc1Nc1ncc(-c2ccn[nH]2)cc1NC(=O)c1cc(F)cc(C(F)(F)F)c1` [I-74], the IC50 lay in the range of 1 to 10 µM.
In turn, `Cc1ccccc1Nc1ncc(-c2ccc(CNC(=O)OC(C)(C)C)cc2)cc1NC(=O)c1cc(F)cc(C(F)(F)F)c1` [I-76] gave an IC50 of 1 to 10 µM.
The compound `Cc1ccccc1Nc1ncc(-c2cccnc2)cc1NC(=O)c1cc(F)cc(C(F)(F)F)c1` [I-77] showed an IC50 of 1 to 10 µM.
On to `Cc1ccccc1Nc1ncc(-c2c(C)noc2C)cc1NC(=O)c1cc(F)cc(C(F)(F)F)c1` [I-78], for which the IC50 lay within 0.5 to 1 µM.
For `Cc1ccccc1Nc1ncc(-c2ccc(NC(=O)OC(C)(C)C)cc2)cc1NC(=O)c1cc(F)cc(C(F)(F)F)c1` [I-80] the value was 1 to 10 µM.
On to `Cc1ccccc1Nc1ncc(-c2cn[nH]c2)cc1NC(=O)c1cc(F)cc(C(F)(F)F)c1` [I-81], for which the IC50 was 1 to 10 µM.
The compound `Cc1ccccc1Nc1ncc(-c2ccccc2C#N)cc1NC(=O)c1cc(F)cc(C(F)(F)F)c1` [I-83] had an IC50 of 0.5 to 1 µM.
In turn, `CNC(=O)c1cnc(Nc2ccccc2C)c(NCc2cc(F)cc(C(F)(F)F)c2)c1` [I-85] registered an IC50 of 10 to 100 µM.
As for `Cc1ccccc1Nc1ncc(C(=O)NCCO)cc1NC(=O)c1cc(F)cc(C(F)(F)F)c1` [I-86], the IC50 fell in the range of 0.5 to 1 µM.
In turn, `CNC(=O)c1cnc(Nc2ccccc2C)c(NC(=O)c2c[nH]c3ccccc23)c1` [I-87] gave an IC50 of 10 to 100 µM.
The compound `Cc1ccccc1Nc1ncc(-c2cnn(C3CCOCC3)c2)cc1NC(=O)c1cc(F)cc(C(F)(F)F)c1` [I-88] showed an IC50 of 0.5 to 1 µM.
For the compound `Cc1ccccc1Nc1ncc(-c2cnn(C)c2)cc1NC(=O)c1cccn2nccc12` [I-89], the IC50 is 10 to 100 µM.
In the case of `Cc1ccccc1Nc1ncc(-c2cnn(C3CCN(C(=O)OC(C)(C)C)CC3)c2)cc1NC(=O)c1cc(F)cc(C(F)(F)F)c1` [I-90] it was 1 to 10 µM.
In turn, `Cc1ccccc1Nc1ncc(-c2cnn(C3CCNCC3)c2)cc1NC(=O)c1cc(F)cc(C(F)(F)F)c1` [I-91] returned an IC50 of 0.5 to 1 µM.
In the case of `Cc1ccccc1Nc1ncc(-c2cnn(C)c2)cc1NC(=O)N1CCOc2ccccc21` [I-92], the IC50 lay within 10 to 100 µM.
As to `COc1cc(F)cc(C(=O)Nc2cc(-c3cnn(C)c3)cnc2Nc2ccccc2C)c1` [I-94], the IC50 is 10 to 100 µM.
`Cc1cc(F)cc(C(=O)Nc2cc(-c3cnn(C)c3)cnc2Nc2ccccc2C)c1` [I-95] returned an IC50 of 1 to 10 µM.
As to `Cc1ccccc1Nc1ncc(-c2cnn(C)c2)cc1NC(=O)c1cc(F)cc(Br)c1` [I-96], the IC50 fell in the range of 0.5 to 1 µM.
As to `Cc1ccccc1Nc1ncc(-c2cnn(C)c2)cc1NC(=O)c1cc(F)cc(Cl)c1` [I-97], the IC50 is 0.5 to 1 µM.
`Cc1ccccc1Nc1ncc(-c2cnn(C)c2)cc1NC(=O)c1ccnc2c1ccn2C` [I-98] displayed an IC50 of 10 to 100 µM.
On to `Cc1ccccc1Nc1ncc(-c2cnn(C)c2)cc1NC(=O)c1cccc(Br)c1` [I-99], for which the IC50 fell in the range of 1 to 10 µM.
Turning to `Cc1ccccc1Nc1ncc(-c2cnn(C)c2)cc1NC(=O)c1cccc2c1cnn2C` [I-100], the IC50 lay within 10 to 100 µM.
`Cc1ccccc1Nc1ncc(-c2cnn(C)c2)cc1NC(=O)c1cc(F)cc(F)c1` [I-101] had an IC50 of 1 to 10 µM.
Regarding `Cc1ccccc1Nc1ncc(-c2cnn(C)c2)cc1NC(=O)c1ccc(F)c(C(F)(F)F)c1` [I-102], the half-maximal inhibitory concentration (IC50) lay within 1 to 10 µM.
`Cc1ccccc1Nc1ncc(-c2cnn(C)c2)cc1NC(=O)c1ccc2cc[nH]c2c1` [I-103] returned an IC50 of 10 to 100 µM.
`Cc1ccccc1Nc1ncc(-c2cnn(C)c2)cc1NC(=O)c1ccc(Cl)c(Cl)c1` [I-104] gave an IC50 of 1 to 10 µM.
Compound `Cc1ccccc1Nc1ncc(-c2cnn(C)c2)cc1NC(=O)c1cccc2ccncc12` [I-105] registered an IC50 of 10 to 100 µM.
Compound `Cc1ccccc1Nc1ncc(-c2cnn(C)c2)cc1NC(=O)c1ccc(C#N)cc1` [I-106] returned an IC50 of 10 to 100 µM.
In the case of `Cc1ccccc1Nc1ncc(-c2cnn(C)c2)cc1NC(=O)c1ccccc1C(F)(F)F` [I-107] it was 10 to 100 µM; in that of `Cc1ccccc1Nc1ncc(-c2cnn(C)c2)cc1NC(=O)c1ccc2[nH]ncc2c1` [I-108], 10 to 100 µM; in that of `Cc1ccc(C(=O)Nc2cc(-c3cnn(C)c3)cnc2Nc2ccccc2C)cc1` [I-109], 10 to 100 µM.
For `Cc1ccccc1Nc1ncc(-c2cnn(C)c2)cc1NC(=O)c1cccc(C(F)(F)F)c1` [I-110] the value was 1 to 10 µM; for `Cc1ccccc1Nc1ncc(-c2cnn(C)c2)cc1NC(=O)c1ccccc1OC(F)(F)F` [I-111], 10 to 100 µM; for `Cc1ccccc1Nc1ncc(-c2cnn(C)c2)cc1NC(=O)c1cccc2nn(C)cc12` [I-112], 10 to 100 µM.
With `Cc1ccccc1Nc1ncc(-c2cnn(C)c2)cc1NC(=O)c1cccc2ccccc12` [I-113], the IC50 was in the range of 10 to 100 µM.
For `CC(=O)Nc1ccc(C(=O)Nc2cc(-c3cnn(C)c3)cnc2Nc2ccccc2C)cc1` [I-114], the IC50 lay in the range of 10 to 100 µM.
For `Cc1cccc(C(=O)Nc2cc(-c3cnn(C)c3)cnc2Nc2ccccc2C)c1` [I-115] the value was 10 to 100 µM; for `Cc1ccccc1Nc1ncc(-c2cnn(C)c2)cc1NC(=O)c1cccc(C#N)c1` [I-116], 10 to 100 µM; for `Cc1ccccc1Nc1ncc(-c2cnn(C)c2)cc1NC(=O)c1ccc(C(F)(F)F)cc1` [I-117], 10 to 100 µM.
For `Cc1ccccc1Nc1ncc(-c2cnn(C)c2)cc1NC(=O)c1cccc(S(C)(=O)=O)c1` [I-118] the value was 10 to 100 µM.
In turn, `Cc1ccccc1Nc1ncc(-c2cnn(C)c2)cc1NC(=O)c1cccc2cnccc12` [I-119] yielded an IC50 of 10 to 100 µM.
Regarding `Cc1ccccc1Nc1ncc(-c2cnn(C)c2)cc1NC(=O)c1cccc(N(C)C)c1` [I-120], the IC50 was 10 to 100 µM.

By IC50 is commonly meant the concentration needed to halve the response being measured.
